According to PubChem BioAssay (NCI):
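Dose response: 5 concentrations. Exposure: 48 h. Format: 96-well plates. Endpoint: linear interpolation; highest concentration if not reached. The concentration for 50% growth inhibition is given as GI50. The concentration for full growth arrest is given as TGI.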

Experiments:
Assay in all cases: inhibition of tumour cell growth, NCI panel, 48 h
[1] = test system: NCI-H460 lung
[2] = test system: SR leukemia
[3] = test system: SK-OV-3 ovarian
[4] = test system: NCI-H522 lung
[5] = test system: UACC-62 melanoma
[6] = test system: HCT-116 colon
[7] = test system: MDA-MB-231 breast
[8] = test system: LOX IMVI melanoma
[9] = test system: KM12 colon
[10] = test system: HCT-15 colon
[11] = test system: HT29 colon
[12] = test system: HL-60(TB) leukemia
[13] = test system: SF-295 CNS
[14] = test system: OVCAR-5 ovarian
[15] = test system: K-562 leukemia
[16] = test system: PC-3 prostate
[17] = test system: DU-145 prostate
[18] = test system: TK-10 renal
[19] = test system: CAKI-1 renal
[20] = test system: MALME-3M melanoma
[21] = test system: NCI-H23 lung
[22] = test system: RPMI-8226 leukemia
[23] = test system: IGROV1 ovarian
[24] = test system: NCI-H226 lung
[25] = test system: SNB-19 CNS
[26] = test system: 786-0 renal
[27] = test system: SNB-75 CNS
[28] = test system: OVCAR-8 ovarian
[29] = test system: SF-268 CNS
[30] = test system: HS 578T breast
[31] = test system: SK-MEL-2 melanoma
[32] = test system: MDA-MB-435
[33] = test system: MCF7 breast
[34] = test system: ACHN renal
[35] = test system: RXF 393 renal
[36] = test system: SK-MEL-5 melanoma
[37] = test system: SF-539 CNS
[38] = test system: OVCAR-3 ovarian
[39] = test system: BT-549 breast
[40] = test system: HOP-92 NSCLC
[41] = test system: SN12C renal
[42] = test system: HOP-62 NSCLC
[43] = test system: U251 CNS
[44] = test system: UO-31 renal
[45] = test system: CCRF-CEM leukemia
[46] = test system: UACC-257 melanoma
[47] = test system: A549 NSCLC
[48] = test system: HCC-2998 colon
[49] = test system: M14 melanoma
[50] = test system: A498 renal
[51] = test system: COLO 205 colon
[52] = test system: SW-620 colon
[53] = test system: NCI/ADR-RES ovarian
[54] = test system: MOLT-4 leukemia
[55] = test system: OVCAR-4 ovarian

For COc1ccc2c(c1)N(CCO)C1=C(C(=O)OC1)C2c1cc(OC)c(OC)c(OC)c1 (configuration not stated), the GI50 [1] was 19.6 nM, the TGI [1] was > 50000 nM and the GI50 [2] was 25.2 nM. For the same compound, the TGI [2] was > 50000 nM, the GI50 [3] was 23.1 nM and the TGI [3] was > 50000 nM. For the same compound, the GI50 [4] was 10.9 nM, the TGI [4] was 28.6 nM and the GI50 [5] was 20.8 nM. For the same compound, the TGI [5] was > 50000 nM, the GI50 [6] was 17.4 nM and the GI50 [7] was 55 nM. The TGI [7] was 246 nM, the GI50 [8] was 25.8 nM and the TGI [8] was > 50000 nM. The GI50 [9] was 17.8 nM, the GI50 [10] was 62.2 nM and the TGI [10] was > 50000 nM. For the same compound, the GI50 [11] was 14.1 nM, the TGI [11] was 38.9 nM and the GI50 [12] was 15 nM. The GI50 [13] was 14 nM, the TGI [13] was > 50000 nM and the GI50 [14] was 61.4 nM. The TGI [14] was > 50000 nM, the GI50 [15] was 19.6 nM and the TGI [15] was > 50000 nM. The GI50 [16] was 24.7 nM, the TGI [16] was > 50000 nM and the GI50 [17] was 26.1 nM. The TGI [17] was 188 nM, the GI50 [18] was 26.4 nM and the TGI [18] was > 50000 nM. For the same compound, the GI50 [19] was 85.2 nM, the TGI [19] was > 50000 nM and the GI50 [20] was 28.7 nM. The TGI [20] was > 50000 nM, the GI50 [21] was 28.1 nM and the TGI [21] was > 50000 nM. The GI50 [22] was 28.7 nM, the TGI [22] was > 50000 nM and the GI50 [23] was 36.2 nM. The TGI [23] was > 50000 nM, the GI50 [24] was 22.8 nM and the TGI [24] was > 50000 nM. The GI50 [25] was 42.9 nM, the TGI [25] was > 50000 nM and the GI50 [26] was 67.9 nM. The TGI [26] was > 50000 nM, the GI50 [27] was 19.8 nM and the TGI [27] was > 50000 nM. For the same compound, the GI50 [28] was 19.9 nM, the TGI [28] was 181 nM and the GI50 [29] was 33 nM. The TGI [29] was > 50000 nM, the GI50 [30] was 27.9 nM and the TGI [30] was > 50000 nM. The GI50 [31] was 26.7 nM, the TGI [31] was 18300 nM and the GI50 [32] was < 10.8 nM. For the same compound, the TGI [32] was 27.2 nM, the GI50 [33] was 19.5 nM and the TGI [33] was > 50000 nM. The GI50 [34] was 54.9 nM, the TGI [34] was > 50000 nM and the GI50 [35] was 12.8 nM. For the same compound, the TGI [35] was > 50000 nM, the GI50 [36] was 17.1 nM and the TGI [36] was 71.4 nM. For the same compound, the GI50 [37] was 17.6 nM, the TGI [37] was > 50000 nM and the GI50 [38] was 13.3 nM. The TGI [38] was 32.2 nM, the GI50 [39] was 91.9 nM and the TGI [39] was > 50000 nM. For the same compound, the GI50 [40] was 86.1 nM, the TGI [40] was > 50000 nM and the GI50 [41] was 60.9 nM. The TGI [41] was > 50000 nM, the GI50 [42] was 26.5 nM and the TGI [42] was > 50000 nM. The GI50 [43] was 16.5 nM, the TGI [43] was > 50000 nM and the GI50 [44] was 183 nM. The TGI [44] was > 50000 nM, the GI50 [45] was 23.1 nM and the TGI [45] was > 50000 nM. The GI50 [46] was 22.6 nM, the TGI [46] was > 50000 nM and the GI50 [47] was 26.6 nM. The TGI [47] was > 50000 nM, the GI50 [48] was 63.9 nM and the TGI [48] was > 50000 nM. The GI50 [49] was 21.3 nM, the TGI [49] was > 50000 nM and the GI50 [50] was 14.7 nM. It also gave a TGI [50] of 61.6 nM, a GI50 [51] of 15 nM and a TGI [51] of 38 nM. The GI50 [52] was 19.6 nM, the TGI [52] was > 50000 nM and the GI50 [53] was 78.7 nM. For the same compound, the TGI [53] was 2700 nM, the GI50 [54] was 93.8 nM and the TGI [54] was > 50000 nM. For the same compound, the GI50 [55] was 31 nM and the TGI [55] was > 50000 nM.
